The source of these data is patent US20210379040A1, “COMBINATION TREATMENT OF LIVER DISORDERS” (Terns Pharmaceuticals, Inc., priority 2020, published 2021).

The subject of one series is mouse hepatocytes. The series can be described thus: In vitro metabolic stability in cryopreserved hepatocytes (mouse). It counts as in vitro ADME. The procedure: (§1) In vitro half-life values were determined and scaled to predict hepatic clearance (CLpred) and hepatic extraction using the well-stirred liver model with no correction for plasma protein as described in Obach et al., The Prediction of Human Pharmacokinetic Parameters from Preclinical and In Vitro Metabolism Data, J. of Pharmacology and Experimental Therapeutics, vol. 283, no. 1, pp. 46-58 (1997).

The test system of a further series is rat hepatocytes. The series is described as follows: In vitro metabolic stability in cryopreserved hepatocytes (rat). It counts as in vitro ADME. Conditions: Sprague-Dawley Rat. The procedure: as §1
The next series concerns monkey hepatocytes. The series is described as follows: In vitro metabolic stability in cryopreserved hepatocytes (monkey). Conditions: Cynomolgus Monkey. It counts as in vitro ADME. The procedure:
as §1

The nature of series [1]: Pharmacokinetics assay, dog. The following applies: plasma, iv, Beagle Dog, intravenously 1 mg/kg. The format is in vivo, beagle dogs. From the text:
Results are shown in FIG. 1A (IV administration) and FIG. 1B (oral administration), and in Table 2. […] Smaller Vdss in monkeys is correlated with higher plasma protein binding.

Series [2] is described as follows: Tissue distribution after 2 mg/kg intravenous infusion. Conditions: SD rats, with 100 μM rifampin. It counts as in vivo. Here is the method:
The tested compounds were administered to SD rats (n=3 per compound) by way of 30 minute intravenous infusion at 2 mg/kg. Blood, liver, kidney, and lung tissue samples were collected from the rats to determine a tissue/plasma ratio.

Series [3] in a line: PK/PD profile, 1 mg/kg oral for 7 consecutive days. The format is in vivo. The following applies: cynomolgus monkeys; for Cmax / Tmax / AUC(0-t): cynomolgus monkey, plasma, po, 1 mg/kg, oral 1 mg/kg daily; for AUC(0-t): read-out: AUC0-24.
The test system of series [4] is liver gene expression (lipid metabolism and fatty acid transport genes). The series can be described thus: Rat CDHFD+NaNO2 NASH model: liver whole transcriptome RNAseq (DEGs). It counts as in vivo, male Wistar rats. Conditions: Compound 2 25 mg/kg, Compound 1 3 mg/kg. The procedure: Animal handling: After arrival, the rats were left for a 2-week acclimation period, during which they were accustomed to the animal facility staff and trained on the procedure of oral gavage. […] Rats were then treated with test compounds for an additional 8 weeks while on CDHFD. […] Final Sacrifice: Half of the animals of each treatment group were terminated on day 84. The other half of the animals in each group were terminated on the following day, day 85. On the day of sacrifice the animals were fasted for 2 hours and received a final treatment with the respective test substance. After the final compound treatment, the animals had no more access to food until sacrifice. At 4 hours after the last administration all animals were sacrificed and livers were sampled for further analysis. Sampling and analysis: Small liver pieces were harvested into RNAlater (Thermo Fisher Scientific Dreieich Germany) and stored at −20° C. prior to RNA sequencing (RNAseq) at MedGenome Inc. RNAseq analysis was performed on liver tissue by Illumina sequencing using standard methodologies. […] Alignment was performed using STAR (v2.7.3a) aligner and reads mapping to ribosomal and mitochondrial genome were removed prior to alignment. Raw read counts were estimated using HTSeq (v0.11.1) and normalized using DESeq2 (v2.22.2). Differentially expressed genes (DEGs) were determined using DESeq2 (R Bioconductor package). […]

In series [5] the test system is FXR-regulated gene expression in human HuH7 hepatoma cells. The series is described as follows: cells. Conditions: Huh-7, 11 h.
Procedure: EC50 values for FXR-regulated gene expression were determined using a cell-based RNA assay.
A further series deals with T1, MAO-A (Homo sapiens, UniProt P21397).
T1 sequence (P21397 1-527): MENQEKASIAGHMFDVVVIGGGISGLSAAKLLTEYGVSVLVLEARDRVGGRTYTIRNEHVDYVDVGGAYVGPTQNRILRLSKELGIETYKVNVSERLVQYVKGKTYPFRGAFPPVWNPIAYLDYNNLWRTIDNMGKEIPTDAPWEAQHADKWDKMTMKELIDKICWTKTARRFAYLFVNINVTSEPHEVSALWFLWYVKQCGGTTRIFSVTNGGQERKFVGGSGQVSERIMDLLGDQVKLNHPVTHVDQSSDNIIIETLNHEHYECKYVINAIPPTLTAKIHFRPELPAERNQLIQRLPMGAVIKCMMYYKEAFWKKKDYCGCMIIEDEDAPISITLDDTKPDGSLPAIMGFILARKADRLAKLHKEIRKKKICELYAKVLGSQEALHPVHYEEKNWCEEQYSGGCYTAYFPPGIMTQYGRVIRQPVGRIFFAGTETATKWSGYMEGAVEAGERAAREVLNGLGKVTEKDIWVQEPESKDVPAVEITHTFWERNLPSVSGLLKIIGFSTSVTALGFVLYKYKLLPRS
The series is described as follows: Biochemical activity, MAO-A.

A short description of series [6]: Multiple once daily dose study: plasma PK and safety. It counts as in vivo, human. The procedure:
3 groups of 8 healthy participants were randomized to receive multiple once daily (QD) doses of Compound 2 or matching placebo in a 3:1 ratio for 7 days (1 mg and 4 mg) or 14 days (10 mg). Plasma levels of Compound 2 and PD biomarkers (plasma amine oxidase activity and methylamine levels) were determined at pre-dose and various timepoints post-dose. Safety was assessed for up to 14 days after last dose.

Where two headings read alike, the source gives them in different places. Marks after values point to notes of the source that are not given here. Bounds are passed on as bounds.

In the case of `Cn1cc(C(=O)O)c2ccc(N3CCC(OCc4c(-c5c(Cl)cccc5Cl)noc4C4CC4)CC3)cc21` [Compound 1], the “Hepatic Extraction” value in the series with mouse hepatocytes was found to be 80.7 ± 1.02%; in the series on rat hepatocytes it was 47.3 ± 0.78%; in the series on monkey hepatocytes, 64.4 ± 0.28%. In addition, the figures for the “In vitro Metabolic CLpred” value with mouse hepatocytes (well-stirred liver model), with rat hepatocytes (well-stirred liver model) and in the series on monkey hepatocytes (well-stirred liver model) were 72.7 ± 1 mL/min/kg, 26.2 ± 0.5 mL/min/kg and 28 ± 0.17 mL/min/kg, respectively. In addition, the half-life in series [1] (read-out: IV Terminal t1/2 (converted)) was 5.67 h. The Vd in [1] (read-out: Vdss) came to 1.92 L/kg. For the same molecule, the “change in distribution to the liver on co-administration with rifampin” value in [2] is reported as “does not result in a significant change”. Besides, the Cmax (in general, the peak of the concentration-time curve) worked out at 257 ± 124 ng/mL in series [3] (Day 1) and 221 ± 121 ng/mL in series [3] (Day 7). Also, the results for the Tmax in series [3] (Day 1) and in series [3] (Day 7) were 1.83 ± 1.17 h and 1.25 ± 0.61 h, respectively. In addition, the AUC(0-t) in [3] (Day 1) came to 1000 ± 419 ng·h/mL; in series [3] (Day 7) it was 858 ± 425 ng·h/mL. Further, the “suppression of the pharmacodynamics biomarker 7AC4” value in series [3] (1 mg/kg oral, 7 consecutive days) is reported as “sustained suppression”. For the same molecule, in [4], the “Ppargc1a differential gene expression relative to vehicle control” value is 0.25 log2-fold change. Further, the EC50 came out at 0.04 µM in series [5] (read-out: EC50, BSEP Gene induction/HuH7); 0.04 µM in [5] (read-out: EC50, FGF-19 Gene Induction/HuH7); 0.05 µM in series [5] (read-out: EC50, SHP Gene induction/HuH7).
As to `COC1CCN(c2ncc(OC/C(=C/F)CN)cn2)CC1` [Compound 2], at MAO-A, the IC50 (as a rule, the concentration that inhibits the measured activity by half) is greater than 50 µM. Moreover, the “plasma PK exposure increases between dose groups” value in series [6] (Day 1, QD 1, 4, 10 mg) is “greater than dose proportional”. In addition, the half-life versus dose entry in series [6] (QD 1, 4, 10 mg) is on record as “increased with dose”. For the same molecule, in series [6] (each dose level), the “accumulation after multiple QD doses” value is on record as “significant accumulation”. Besides, the “adverse events or laboratory abnormalities” value in [6] (healthy participants, QD 1 mg and 4 mg for 7 days or 10 mg for 14 days) is recorded as “No clinically relevant adverse events or laboratory abnormalities were reported”. Also, the “time to steady state” value in series [6] (highest dose cohort (10 mg QD)) is reported as 7 days. For the same molecule, the safety and tolerability entry in series [6] (up to 10 mg QD for 14 days) is “safe and well tolerated”. The “Ppargc1a differential gene expression relative to vehicle control” value in series [4] is given as 0.51* log2-fold change.
